Reference: US20180110824A1, “Macrocyclic Modulators of the Ghrelin Receptor” (Ocera Therapeutics, Inc., priority 2016, published 2018)
Like-named read-outs stand apart in the source and are kept apart here.

Biological target: T1, human ghrelin receptor (hGHS-R1a) (Homo sapiens, UniProt Q92847)
T1 construct: host or cells: CHO-K1 co-expressing Gα16 and mitochondrially targeted aequorin
Experiment: Aequorin functional assay (ghrelin receptor), CHO-K1 cells co-expressing Gα16 and aequorin
Assay type: cell-based
Details: read-out: EC50
Procedure, shortened: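 CHO-K1 cells expressing hGHS-R1a, Gα16 and mitochondrial aequorin, loaded overnight at rt with 5 μM coelenterazine, then challenged in DMEM/0.1% BSA pH 7.0 with compound at 0.001–10 μM (DMSO <0.6%).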

T1 sequence (Q92847 whole entry): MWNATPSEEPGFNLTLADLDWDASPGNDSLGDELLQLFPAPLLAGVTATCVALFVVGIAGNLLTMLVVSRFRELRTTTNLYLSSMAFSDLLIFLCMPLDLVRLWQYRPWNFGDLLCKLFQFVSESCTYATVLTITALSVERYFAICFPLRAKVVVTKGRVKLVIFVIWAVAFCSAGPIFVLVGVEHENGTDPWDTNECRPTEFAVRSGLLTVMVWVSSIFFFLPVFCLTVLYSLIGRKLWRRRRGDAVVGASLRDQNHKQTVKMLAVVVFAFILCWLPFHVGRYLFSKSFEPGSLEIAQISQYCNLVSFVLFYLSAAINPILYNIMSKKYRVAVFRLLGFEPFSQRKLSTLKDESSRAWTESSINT

Compound `CC1C(=O)NC(Cc2ccc(F)cc2)C(=O)NCCCc2ccccc2O[C@H](C)CNC(C2CC2)C(=O)N1C` (some centres unmarked) [compound 298] has an EC50 (Table 4, functional (agonist) activity, TFA salts unless otherwise noted) of 1 to 100 nM and an EC50 (activation of hGHS-R1a, FIG. 11) of 25 nM.
